From patent US8741359B2, “Method for testing a substance which is potentially active in the field of lipolysis and its mainly cosmetic use” (BASF Beauty Care Solutions France S.A.S., priority 2001, dated 2014)

Key:
lipoprotein lipase [1] = molecular target: T1, lipoprotein lipase (Bos taurus, UniProt P11151); test: Inhibition of lipoprotein lipase, acellular in vitro model, NEFA determination with NEFA-C kit (colorimetry 550 nm); type: biochemical, bovine; settings: for Inhibition (%) Pure product diluted to a 1/100th / Inhibition (%) Pure product diluted to a 1/10,000th / Inhibition (%) Pure product: reference inhibitors; for Inhibition (%) Pure product: pure product at initial concentration (protamine sulphate 0.4%, protamine 2.4%, sodium pyrophosphate 6%)
T1 construct: The LPL used in the study model retained does in fact originate from bovine milk; from tissue; host or cells: bovine milk
T1 sequence (P11151 29-478): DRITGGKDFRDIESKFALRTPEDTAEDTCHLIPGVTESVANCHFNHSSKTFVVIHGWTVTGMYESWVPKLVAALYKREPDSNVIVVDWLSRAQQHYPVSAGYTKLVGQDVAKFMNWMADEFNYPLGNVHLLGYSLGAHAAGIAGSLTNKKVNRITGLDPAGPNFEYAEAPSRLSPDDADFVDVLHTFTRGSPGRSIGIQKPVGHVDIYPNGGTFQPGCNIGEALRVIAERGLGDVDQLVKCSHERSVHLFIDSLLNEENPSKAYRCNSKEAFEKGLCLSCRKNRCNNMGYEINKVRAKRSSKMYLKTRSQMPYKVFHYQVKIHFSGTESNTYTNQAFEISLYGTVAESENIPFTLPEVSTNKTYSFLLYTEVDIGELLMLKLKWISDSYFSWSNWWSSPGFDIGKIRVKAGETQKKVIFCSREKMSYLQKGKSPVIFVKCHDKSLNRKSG
Procedure: The study of the inhibition of the lipoprotein lipase is carried out in an acellular in vitro model which is desired to be a most ? intelligent ? reflection possible of the situation encountered in vivo.
Upon completion of this incubation, a determination of the non-esterified fatty acids (NEFA) is effected upon the reaction medium by an enzymatic technique which is possible to be followed by colorimetry at 550 nm (NEFA-C kit).
A control corresponding to the LPL activity in the absence of inhibitor is effected. […] The results are expressed in percentage inhibition with respect to the control.

lipoprotein lipase [2] = molecular target: T1, lipoprotein lipase; test: Inhibition of lipoprotein lipase, released oleic acid determined by gas phase chromatography (GPC); type: biochemical, bovine; settings: for Inhibition Pure product diluted to a 1/100th: diluted 1/100th; for Inhibition Pure product diluted to a 1/10,000th: diluted 1/10,000th; for Inhibition Pure product: pure product at initial concentration (sodium pyrophosphate 6%, protamine sulphate 0.4%)
Procedure: LPL is an enzyme which has a significant affinity for its reaction product. The fatty acids released will in fact aggregate around the enzyme which will as it were be sequestered by the fatty acids and will therefore be no longer accessible to the substrate. […] II—Inhibition of the Lipoprotein Lipase:
The enzyme is incubated for a determined period of time in the presence of its inhibitor while the triolein is incubated in the presence of apoCII so as to mimic the situation encountered in vivo.
The triolein/ApoCII mixture is then incubated in the presence of the medium constituted by the enzyme±inhibitor.
For this, an oleic acid determination technique which enables the oleic acid at the end of the enzymatic reaction to be quantified, was developed.
The oleic acid is extracted from the reaction medium of the enzymatic determination with ethanol, and then injected onto a commercial column from DBJW scientific: reference DB FFAP, 15 m in length, 0.32 mm internal diameter, 0.25 μm thickness in splitless mode. The temperatures of the injector and of the detector are 280° C. The programming in temperature starts at 50° C. for 1 minute and then rises by 40° C./minute up to 200° C. and then by 15° C. par minute up to 250° C. for 3 minutes.

Compound | Inhibition (%) Pure product diluted to a 1/100th (lipoprotein lipase [1]; diluted 1/100th) | Inhibition (%) Pure product diluted to a 1/10,000th (lipoprotein lipase [1]; diluted 1/10,000th) | Inhibition (%) Pure product (lipoprotein lipase [1]) | Inhibition Pure product diluted to a 1/100th (lipoprotein lipase [2]) | Inhibition Pure product diluted to a 1/10,000th (lipoprotein lipase [2]) | Inhibition Pure product (lipoprotein lipase [2]) | Inhibition Pure product diluted to a 1/100th (lipoprotein lipase [1]; denaturing products, diluted 1/100th) | Inhibition Pure product diluted to a 1/10,000th (lipoprotein lipase [1]; denaturing products, diluted 1/10,000th) | Inhibition Pure product (lipoprotein lipase [1]; denaturing products, pure product)
Protamine | 9.6% ± 5 | 8.5% ± 8.7 | 11.2% ± 6.6 |  |  |  |  |  | 
Protamine sulphate | 2.6% ± 14.4 | 11.8% ± 14.7 | 10.1% ± 7.9 | 5.0% ± 9.6 | 27.7% ± 2.9 | 17.9% ± 17.5 |  |  | 
O=P([O-])([O-])OP(=O)([O-])[O-].[Na+].[Na+].[Na+].[Na+] [Sodium pyrophosphate] | 13% ± 12.5 | 0.4% ± 8.3 | 15% ± 12.6 | 30.4% ± 4.0 | 47.4% ± 10.4 | 35.1% ± 11.1 |  |  | 
O=C(OC[C@H]1O[C@@H](OC(=O)c2cc(O)c(O)c(OC(=O)c3cc(O)c(O)c(O)c3)c2)[C@H](OC(=O)c2cc(O)c(O)c(OC(=O)c3cc(O)c(O)c(O)c3)c2)[C@@H](OC(=O)c2cc(O)c(O)c(OC(=O)c3cc(O)c(O)c(O)c3)c2)[C@@H]1OC(=O)c1cc(O)c(O)c(OC(=O)c2cc(O)c(O)c(O)c2)c1)c1cc(O)c(O)c(OC(=O)c2cc(O)c(O)c(O)c2)c1 [Tannic acid] |  |  |  | 44.8% ± 10.6 | 0% ± 3.8 | 100% ± 1.8 | 11.4% ± 10.39 | 0% ± 9.8 | 98.3% ± 12.4
